Experimental data: ChEMBL document CHEMBL3098063, “Dammarane triterpenes from the leaves of Panax ginseng enhance cellular immunity” (Bioorg Med Chem, 2014)
Active and inactive are the calls of the source.

Columns and labels:
Assay type in all cases: functional, cell-based
[1] = system: Peritoneal macrophage cell; experiment: Inhibition of NO production in LPS-activated mouse peritoneal macrophages at 100 ng/mL after 1 day by ELISA
[2] = system: Splenocyte; experiment: Stimulation of IL-2 secretion in ConA-activated Balb/C mouse splenocytes at 100 ng/mL after 1 day by ELISA
[3] = system: Splenocyte; experiment: Inhibition of IL-4 secretion in ConA-activated Balb/C mouse splenocytes at 100 ng/mL after 1 day by ELISA
[4] = system: Splenocyte; experiment: Inhibition of IL-6 secretion in ConA-activated Balb/C mouse splenocytes at 100 ng/mL after 1 day by ELISA
[5] = system: Peritoneal macrophage cell; experiment: Increase in IL-12 production in LPS-activated mouse peritoneal macrophages at 100 ng/mL after 1 day by ELISA

CC(C)=C[C@H]1C[C@](C)(O[C@@H]2O[C@H](CO)[C@@H](O)[C@H](O)[C@H]2O)[C@H]2CC[C@]3(C)[C@@H]2[C@@H](C[C@@H]2[C@@]4(C)CC[C@H](O)C(C)(C)[C@@H]4CC[C@]23C)O1
active: inhibition [1] | Activity [2] | inhibition [3] | inhibition [4] | Activity [5]

CC(=O)/C=C/C=C(\C)[C@H]1CC[C@]2(C)[C@@H]1[C@H](O)C[C@@H]1[C@@]3(C)CC[C@H](O)C(C)(C)[C@@H]3[C@@H](O)C[C@]12C
active: inhibition [1] | Activity [2] | inhibition [3] | inhibition [4] | Activity [5]

CC(C)=CCC[C@](C)(O)[C@H]1CC[C@]2(C)[C@@H]1[C@H](O)C[C@@H]1[C@@]3(C)CC[C@H](O)C(C)(C)[C@@H]3[C@@H](O[C@@H]3O[C@H](CO)[C@@H](O)[C@H](O)[C@H]3O[C@H]3O[C@@H](C)[C@H](O)[C@@H](O)[C@H]3O)C[C@]12C
active: Activity [2] | inhibition [3] | inhibition [4] | Activity [5]
